Measured values: EP0334218A1, “Solid, especially suited for oral and rectal adiministration, etofenamate-containing preparations” (HEXAL-PHARMA GMBH & CO. KG, priority 1988, dated 1989)
Values after ≈ are worked out from the molar mass of the structure shown.

Experiment: Solubility behaviour (dissolved etofenamate over time) in distilled water
Type: physicochemical
Conditions: 22° C, read-out: Etofenamat gelöst
Experimental: Vergleich des Löslichkeitsverhaltens von reinem Etofenamat und zwei Etofenamat-Cyclodextrinzubereitungen gemäß der Erfindung:
Die Untersuchungen wurden in destilliertem Wasser bei 22° C durchgeführt und erbrachten die folgenden Ergebnisse: […]

solubility at 1 min (1 min): 0.009 mg/mL (≈ 24.4 µM)
solubility at 0.05 h (3 min): 0.011 mg/mL (≈ 29.8 µM)
solubility at 5 min (5 min): 0.011 mg/mL (≈ 29.8 µM)
solubility at 10 min (10 min): 0.011 mg/mL (≈ 29.8 µM)
solubility at 0.25 h (15 min): 0.013 mg/mL (≈ 35.2 µM)
solubility at 0.5 h (30 min): 0.013 mg/mL (≈ 35.2 µM)
solubility at 0.75 h (45 min): 0.011 mg/mL (≈ 29.8 µM)
solubility at 1 h (60 min): 0.012 mg/mL (≈ 32.5 µM)
SMILES: O=C(OCCOCCO)c1ccccc1Nc1cccc(C(F)(F)F)c1 [Etofenamat, 2-(2-Hydroxyethoxy)-ethyl-N-(α,α,α-trifluoro-m-tolyl)-anthranilat]
